This is an account of results in article PMC6009853, “Inhibition studies on a panel of human carbonic anhydrases with N1-substituted secondary sulfonamides incorporating thiazolinone or imidazolone-indole tails” (Journal of Enzyme Inhibition and Medicinal Chemistry, 2018).

Read-outs that look alike come from different tables or passages of the source.

Experiment [1] addresses T1, hCA IV (Homo sapiens, UniProt P22748).
T1 construct: gene CA4; recombinant, obtained in-house; membrane-associated isoform
Nature of the experiment: stopped-flow CO2 hydrase assay. Format: biochemical.

For experiment [2], the target named is T2, hCA I (Homo sapiens, UniProt P00915).
T2 construct: gene CA1; recombinant, obtained in-house; cytosolic
The experiment can be described thus: stopped-flow CO2 hydrase assay. Format: biochemical. The text has this: stopped-flow CO2 hydrase assay on hCA I

For experiment [3], the target named is T3, hCA IX (Homo sapiens, UniProt Q16790).
T3 construct: gene CA9; recombinant, obtained in-house; tumour-associated isoform
The experiment can be described thus: stopped-flow CO2 hydrase assay. Format: biochemical. The text has this: stopped-flow CO2 hydrase assay on hCA IX

Experiment [4] has as its target T4, hCA II (Homo sapiens, UniProt P00918).
T4 construct: gene CA2; recombinant, obtained in-house
The experiment can be described thus: stopped-flow CO2 hydrase assay. Format: biochemical. An excerpt: stopped-flow CO2 hydrase assay on hCA II

Experiment [5] has as its target T3, hCA IX. Nature of the experiment: stopped-flow CO2 hydrase assay. To be noted: read-out: hCA I. Format: biochemical.
The nature of experiment [6]: stopped-flow CO2 hydrase assay. Format: biochemical, Homo sapiens. Conditions: read-out: hCA I.

T1 sequence (P22748 19-284): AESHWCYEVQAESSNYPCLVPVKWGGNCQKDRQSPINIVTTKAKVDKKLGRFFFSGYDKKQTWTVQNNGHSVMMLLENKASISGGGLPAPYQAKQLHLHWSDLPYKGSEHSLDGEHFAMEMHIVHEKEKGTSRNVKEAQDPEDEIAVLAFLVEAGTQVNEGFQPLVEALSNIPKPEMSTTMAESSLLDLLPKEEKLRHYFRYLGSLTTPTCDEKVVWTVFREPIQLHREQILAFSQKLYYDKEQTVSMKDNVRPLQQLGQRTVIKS
T2 sequence (P00915 2-261): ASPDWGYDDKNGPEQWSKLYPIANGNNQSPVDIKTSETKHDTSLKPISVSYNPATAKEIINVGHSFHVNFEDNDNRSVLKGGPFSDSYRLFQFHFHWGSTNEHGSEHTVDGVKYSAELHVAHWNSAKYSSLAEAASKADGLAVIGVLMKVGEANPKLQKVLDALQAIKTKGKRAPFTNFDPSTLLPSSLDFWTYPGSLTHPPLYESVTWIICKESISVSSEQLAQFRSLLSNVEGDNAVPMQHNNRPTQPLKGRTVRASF

Take `NS(=O)(=O)c1ccc(N=Cc2c[nH]c3ccccc23)cc1` [4a, 4-{[(1H-indol-3-yl)methylene]amino}benzenesulfonamide]: the Ki in experiment [1] (read-out: hCA IV) was 2.74 µM; in experiment [2], 0.0885 µM; in experiment [3], 0.327 µM; in experiment [4], 0.576 µM.
For the compound `CC(=O)NS(=O)(=O)c1ccc(N=Cc2c[nH]c3ccccc23)cc1` [4b, N-{[4-(((1H-indol-3-yl)methylene)amino)phenyl]sulfonyl}acetamide], the Ki in experiment [1] (read-out: hCA II) was above 10 µM; in experiment [2] it was 8.58 µM; in experiment [3], 1.62 µM; in experiment [4] it was above 10 µM.
With `O=S(=O)(Nc1ncccn1)c1ccc(N=Cc2c[nH]c3ccccc23)cc1` [4c], the Ki in experiment [1] (read-out: hCA IV), in experiment [2], in experiment [5] and in experiment [6] was above 10 µM throughout.
Turning to `O=S(=O)(Nc1ccccn1)c1ccc(N=Cc2c[nH]c3ccccc23)cc1` [4d], the Ki in experiment [1] (read-out: hCA IV), in experiment [2], in experiment [5] and in experiment [6] was above 10 µM in each case.
Regarding `O=S(=O)(Nc1nccs1)c1ccc(N=Cc2c[nH]c3ccccc23)cc1` [4e], the Ki in experiment [1] (read-out: hCA IV), in experiment [2], in experiment [5] and in experiment [6] was above 10 µM throughout.
For the compound `N=C(N)NS(=O)(=O)c1ccc(N=Cc2c[nH]c3ccccc23)cc1` [4f, 4-{[(1H-indol-3-yl)methylene]amino}-N-carbamimidoylbenzenesulfonamide], the Ki in experiment [1] (read-out: hCA IV) was above 10 µM; in experiment [2], 7.53 µM; in experiment [3] it was 1.31 µM; in experiment [4], 8.29 µM.
For the compound `NS(=O)(=O)c1ccc(NC2=NC(=O)C(=Cc3c[nH]c4ccccc34)S2)cc1` [7a, 4-{[5-((1H-indol-3-yl)methylene)-4-oxo-4,5-dihydrothiazol-2-yl]amino}benzenesulfonamide], the Ki turned out to be 4.43 µM in experiment [1] (read-out: hCA IV), 0.0964 µM in experiment [2], 0.308 µM in experiment [3] and 0.0764 µM in experiment [4].
For the compound `CC(=O)NS(=O)(=O)c1ccc(NC2=NC(=O)C(=Cc3c[nH]c4ccccc34)S2)cc1` [7b, N-{[4-((5-((1H-indol-3-yl)methylene)-4-oxo-4,5-dihydrothiazol-2-yl)amino)phenyl]sulfonyl} acetamide], the Ki in experiment [1] (read-out: hCA II) is above 10 µM; in experiment [2], 7.98 µM; in experiment [3], 0.778 µM; in experiment [4] it was above 10 µM.
For the compound `O=C1N=C(Nc2ccc(S(=O)(=O)Nc3ncccn3)cc2)SC1=Cc1c[nH]c2ccccc12` [7c], the Ki in experiment [1] (read-out: hCA IV), in experiment [2], in experiment [5] and in experiment [6] was above 10 µM in each case.
As to `O=C1N=C(Nc2ccc(S(=O)(=O)Nc3ccccn3)cc2)SC1=Cc1c[nH]c2ccccc12` [7d], the Ki in experiment [1] (read-out: hCA IV), in experiment [2], in experiment [5] and in experiment [6] was above 10 µM in each case.
Regarding `O=C1N=C(Nc2ccc(S(=O)(=O)Nc3nccs3)cc2)SC1=Cc1c[nH]c2ccccc12` [7e, 4-{[(5-((1H-indol-3-yl)methylene)-4-oxo-4,5-dihydrothiazol-2-yl)amino]-N-(thiazol-2-yl)] benzenesulfonamide], the Ki in experiment [1] (read-out: hCA IV), in experiment [2], in experiment [5] and in experiment [6] was above 10 µM throughout.
As to `N=C(N)NS(=O)(=O)c1ccc(NC2=NC(=O)C(=Cc3c[nH]c4ccccc34)S2)cc1` [7f, 4-{[5-((1H-indol-3-yl)methylene)-4-oxo-4,5-dihydrothiazol-2-yl]amino}-N-carbamimidoyl benzenesulfonamide], the Ki was above 10 µM in experiment [1] (read-out: hCA IV), 9.07 µM in experiment [2], 1.4 µM in experiment [3] and 7.18 µM in experiment [4].
With `CC(=O)n1cc(C=C2N=C(c3ccccc3)N(c3ccc(S(N)(=O)=O)cc3)C2=O)c2ccccc21` [10a, 4-[4-((1-Acetyl-1H-indol-3-yl)methylene)-5-oxo-2-phenyl-4,5-dihydro-1H-imidazol-1-yl]benzenesulfonamide], the Ki is 0.263 µM in experiment [1] (read-out: hCA IV) and 0.318 µM in experiment [3].
The matching figures for `CC(=O)NS(=O)(=O)c1ccc(N2C(=O)C(=Cc3cn(C(C)=O)c4ccccc34)N=C2c2ccccc2)cc1` [10b, N-[(4–(4-((1-acetyl-1H-indol-3-yl)methylene)-5-oxo-2-phenyl-4,5-dihydro-1H-imidazol-1-yl)phenyl)sulfonyl]acetamide]: above 10 µM and 1.47 µM.
Turning to `CC(=O)n1cc(C=C2N=C(c3ccccc3)N(c3ccc(S(=O)(=O)Nc4ncccn4)cc3)C2=O)c2ccccc21` [10c, 4-[4-((1-Acetyl-1H-indol-3-yl)methylene)-5-oxo-2-phenyl-4,5-dihydro-1H-imidazol-1-yl]-N-(pyrimidin-2-yl)benzenesulfonamide], the Ki in experiment [1] (read-out: hCA IV), in experiment [2], in experiment [5] and in experiment [6] was above 10 µM in each case.
As for `CC(=O)n1cc(C=C2N=C(c3ccccc3)N(c3ccc(S(=O)(=O)Nc4ccccn4)cc3)C2=O)c2ccccc21` [10d], the Ki in experiment [1] (read-out: hCA IV), in experiment [2], in experiment [5] and in experiment [6] was above 10 µM each time.
Turning to `CC(=O)n1cc(C=C2N=C(c3ccccc3)N(c3ccc(S(=O)(=O)Nc4nccs4)cc3)C2=O)c2ccccc21` [10e, 4-[4-((1-Acetyl-1H-indol-3-yl)methylene)-5-oxo-2-phenyl-4,5-dihydro-1H-imidazol-1-yl]-N-(thiazol-2-yl)benzenesulfonamide], the Ki in experiment [1] (read-out: hCA IV), in experiment [2], in experiment [5] and in experiment [6] was above 10 µM throughout.
Consider `CC(=O)n1cc(C=C2N=C(c3ccccc3)N(c3ccc(S(=O)(=O)N=C(N)N)cc3)C2=O)c2ccccc21` [10f, 4-[4-((1-Acetyl-1H-indol-3-yl)methylene)-5-oxo-2-phenyl-4,5-dihydro-1H-imidazol-1-yl]-N-carbamimidoylbenzenesulfonamide], for which the Ki was above 10 µM in experiment [1] (read-out: hCA IV), 5.76 µM in experiment [2], 1.64 µM in experiment [3] and 3.82 µM in experiment [4].
With `COc1ccc(C2=NC(=Cc3cn(C(C)=O)c4ccccc34)C(=O)N2c2ccc(S(N)(=O)=O)cc2)cc1` [10g, 4-[4-((1-Acetyl-1H-indol-3-yl)methylene)-2–(4-methoxyphenyl)-5-oxo-4,5-dihydro-1H-imidazol-1-yl]benzenesulfonamide], the Ki in experiment [1] (read-out: hCA IV) was determined as 2.77 µM; in experiment [2] it was 0.0937 µM; in experiment [3], 0.328 µM; in experiment [4] it was 0.602 µM.
For the compound `COc1ccc(C2=NC(=Cc3cn(C(C)=O)c4ccccc34)C(=O)N2c2ccc(S(=O)(=O)NC(C)=O)cc2)cc1` [10h, N-[(4–(4-((1-acetyl-1H-indol-3-yl)methylene)-2–(4-methoxyphenyl)-5-oxo-4,5-dihydro-1H-imidazol-1-yl)phenyl)sulfonyl]acetamide], the Ki in experiment [1] (read-out: hCA IV) came to 3.05 µM; in experiment [2], 5.72 µM; in experiment [3], 1.4 µM; in experiment [4] it was 0.549 µM.
On to `COc1ccc(C2=NC(=Cc3cn(C(C)=O)c4ccccc34)C(=O)N2c2ccc(S(=O)(=O)Nc3ncccn3)cc2)cc1` [10i, 4-[4-((1-Acetyl-1H-indol-3-yl)methylene)-2–(4-methoxyphenyl)-5-oxo-4,5-dihydro-1H-imidazol-1-yl]-N-(pyrimidin-2-yl)benzenesulfonamide], for which the Ki in experiment [1] (read-out: hCA IV), in experiment [2], in experiment [5] and in experiment [6] was above 10 µM throughout.
Turning to `COc1ccc(C2=NC(=Cc3cn(C(C)=O)c4ccccc34)C(=O)N2c2ccc(S(=O)(=O)Nc3ccccn3)cc2)cc1` [10j, 4-[4-((1-Acetyl-1H-indol-3-yl)methylene)-2–(4-methoxyphenyl)-5-oxo-4,5-dihydro-1H-imidazol-1-yl]-N-(pyridin-2-yl)benzenesulfonamide], the Ki in experiment [1] (read-out: hCA IV), in experiment [2], in experiment [5] and in experiment [6] was above 10 µM throughout.
Consider `COc1ccc(C2=NC(=Cc3cn(C(C)=O)c4ccccc34)C(=O)N2c2ccc(S(=O)(=O)Nc3nccs3)cc2)cc1` [10k, 4-[4-((1-Acetyl-1H-indol-3-yl)methylene)-2–(4-methoxyphenyl)-5-oxo-4,5-dihydro-1H-imidazol-1-yl]-N-(thiazol-2-yl)benzenesulfonamide], for which the Ki in experiment [1] (read-out: hCA IV), in experiment [2], in experiment [5] and in experiment [6] was above 10 µM each time.
For the compound `COc1ccc(C2=NC(=Cc3cn(C(C)=O)c4ccccc34)C(=O)N2c2ccc(S(=O)(=O)NC(=N)N)cc2)cc1` [10l, 4-[4-((1-Acetyl-1H-indol-3-yl)methylene)-2–(4-methoxyphenyl)-5-oxo-4,5-dihydro-1H-imidazol-1-yl]-N-carbamimidoylbenzenesulfonamide], the Ki in experiment [1] (read-out: hCA II) is above 10 µM; in experiment [2] it was 6.9 µM; in experiment [3] it was 1.21 µM; in experiment [4], above 10 µM.
